# Laboratory results published in ChEMBL document CHEMBL3272067, “4-Halovinyl- and 4-ethynyl-4-deformylpyridoxal derivatives and related analogues as potentially irreversible antagonists of vitamin B6” (J Med Chem, 1977).
# Calls of active or inactive are those of the source. No cut-off for these calls is given here.
# How the values were obtained:
# [1] = target: T1, Pyridoxine-5'-phosphate oxidase (Mus musculus) (UniProt Q91XF0); assay: Inhibition of pyridoxine phosphate oxidase in mouse TA3 cells assessed as inhibition of 1 x 10^-7 M pyridoxal-induced cell growth; type: cell-based
# T1 sequence (whole entry): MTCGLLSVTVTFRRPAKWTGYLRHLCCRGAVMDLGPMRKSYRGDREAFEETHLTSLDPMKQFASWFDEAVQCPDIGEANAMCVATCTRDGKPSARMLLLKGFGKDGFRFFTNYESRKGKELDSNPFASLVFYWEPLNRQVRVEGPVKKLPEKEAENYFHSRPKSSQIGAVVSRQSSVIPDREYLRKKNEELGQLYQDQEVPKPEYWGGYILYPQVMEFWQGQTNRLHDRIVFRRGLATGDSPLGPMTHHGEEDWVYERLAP
# [2] = target: T1, Pyridoxine-5'-phosphate oxidase (Mus musculus); assay: Inhibition of pyridoxine phosphate oxidase in mouse TA3 cells assessed as inhibition of 10^-5 M pyridoxal-induced cell growth; type: cell-based
# Pyridoxal kinase [3] = target: T2, Pyridoxal kinase (Homo sapiens, UniProt O00764); assay: Non-competitive inhibition of pyridoxal phosphokinase (unknown origin)
# T2 sequence (O00764 whole entry): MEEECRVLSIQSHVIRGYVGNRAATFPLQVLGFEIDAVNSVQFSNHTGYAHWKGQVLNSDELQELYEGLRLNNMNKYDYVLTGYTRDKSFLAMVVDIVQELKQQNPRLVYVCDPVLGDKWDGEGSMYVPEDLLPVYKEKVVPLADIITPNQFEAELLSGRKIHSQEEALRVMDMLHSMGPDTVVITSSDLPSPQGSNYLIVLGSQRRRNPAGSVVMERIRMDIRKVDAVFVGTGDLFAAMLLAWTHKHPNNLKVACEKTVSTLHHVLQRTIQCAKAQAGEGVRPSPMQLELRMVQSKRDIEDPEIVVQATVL
# [4] = target: T3, Pyridoxine-5'-phosphate oxidase (Homo sapiens, UniProt Q9NVS9); assay: Non-competitive inhibition of pyridoxine phosphate oxidase (unknown origin) assessed as oxidation of pyridoxol 5'-phosphate by Lineweaver-Burk plot analysis
# T3 sequence (Q9NVS9 whole entry): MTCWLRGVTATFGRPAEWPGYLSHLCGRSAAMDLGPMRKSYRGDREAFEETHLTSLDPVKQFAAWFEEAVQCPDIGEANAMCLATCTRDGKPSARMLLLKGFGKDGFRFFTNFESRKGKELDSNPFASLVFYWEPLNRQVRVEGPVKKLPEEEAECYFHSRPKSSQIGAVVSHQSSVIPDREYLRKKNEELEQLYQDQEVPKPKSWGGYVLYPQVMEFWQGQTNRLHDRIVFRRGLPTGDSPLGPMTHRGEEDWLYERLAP
# [5] = target: T4, Pyridoxine-5'-phosphate oxidase (Homo sapiens) (UniProt Q9NVS9); assay: Competitive inhibition of pyridoxine phosphate oxidase (unknown origin) assessed as oxidation of pyridoxol 5'-phosphate by Lineweaver-Burk plot analysis
# T4 sequence (whole entry): T3 sequence (Q9NVS9 whole entry)
# Pyridoxal kinase [6] = target: T2, Pyridoxal kinase; assay: Competitive inhibition of pyridoxal phosphokinase (unknown origin)
# [7] = target: T1, Pyridoxine-5'-phosphate oxidase (Mus musculus); assay: Inhibition of pyridoxine phosphate oxidase in mouse TA3 cells assessed as inhibition of 1 x 10^-7 M pyridoxal-induced cell growth at 10^-4 M; type: cell-based
SMILES,ID50 [1],other results
C=C/C=C/c1c(COCc2ccccc2)cnc(C)c1OCc1ccccc1,1.5 ×10⁻⁵ M,
C#Cc1c(COP(=O)(O)O)cnc(C)c1O,3.8 µM,Ki [4]: 0.55 µM
Cc1ncc(COCc2ccccc2)c(/C=C/Cl)c1OCc1ccccc1,3 µM,
C=C(Cl)c1c(CO)cnc(C)c1O,9.5 µM,
CC(=O)c1c(CO)cnc(C)c1O,,inhibition [7]: inactive
CC/C=C/c1c(COCc2ccccc2)cnc(C)c1OCc1ccccc1,1.5 ×10⁻⁵ M,

# Now from value to molecule, other results behind:
ID50 [1],SMILES,other results
8 µM,C#Cc1c(CO)cnc(C)c1O,ID50 [2]: 9 ×10⁻⁵ M; Ki (Pyridoxal kinase [3]): 125 µM
6.8 ×10⁻⁸ M,Cc1ncc(CO)c(C)c1O,growth inhibition (GI) [2]: inactive
0.0025 µM,C=Cc1c(CO)cnc(C)c1O,growth inhibition (GI) [2]: inactive; inhibition [5]: Active; Ki (Pyridoxal kinase [6]): 22.5 µM
1.2 ×10⁻⁵ M,Cc1ncc(CO)c(/C=C/Br)c1O,
